Source: patent publication US8912207B2, “2-aldoximino-5-fluoropyrimidine derivatives” (Dow AgroSciences, LLP., priority 2009, dated 2014)
Read-outs that look alike come from different tables or passages of the source.

Tests used:
[1] = test system: Mycosphaerella graminicola; anamorph: Septoria tritici; Bayer code SEPTTR; assay: Fungicidal activity: leaf blotch of wheat, one-day protectant (1DP) and three-day curative (3DC) tests on wheat plants; type: in vivo, Septoria tritici on wheat plants (variety Yuma); conditions: Zymoseptoria tritici, rating of % disease control vs untreated inoculated plants
Experimental: Evaluation of Fungicidal Activity: Leaf Blotch of Wheat (Mycosphaerella graminicola; anamorph: Septoria tritici; Bayer code […]) Wheat plants (variety Yuma) were grown from seed in a greenhouse in 50% mineral soil/50% soil-less Metro mix until the first leaf was fully emerged, with 7-10 seedlings per pot. These plants were inoculated with an aqueous spore suspension of Septoria tritici either prior to or after fungicide treatments. After inoculation the plants were kept in 100% relative humidity (one day in a dark dew chamber followed by two to three days in a lighted dew chamber) to permit spores to germinate and infect the leaf. The plants were then transferred to a greenhouse for disease to develop. The following table presents the activity of typical compounds of the present disclosure when evaluated in these experiments. The effectiveness of the test compounds in controlling disease was determined by assessing the severity of disease on treated plants, then converting the severity to percent control based on the level of disease on untreated, inoculated plants. In each case of Table III the rating scale is as follows: […]

[2] = 24 h, one-day protectant, read-out: SEPTTR 25 ppm 1DP
[3] = 24 h, one-day protectant, read-out: SEPTTR 100 ppm 1DP
[4] = 72 h, three-day curative, read-out: SEPTTR 25 ppm 3DC
[5] = 72 h, three-day curative, read-out: SEPTTR 100 ppm 3DC

Row | melting point | Structure (SMILES) | pest or weed control at 25 ppm [1, 2] [%] | pest or weed control at 100 ppm [1, 3] [%] | pest or weed control at 25 ppm [1, 4] [%] | pest or weed control at 100 ppm [1, 5] [%]
1 | 90 to 92 °C | CC(C)C=NOc1ncc(F)c(N(C)C)n1 [Compound 55] | 0 to 25 | 0 to 25 | 0 to 25 | 0 to 25
2 | 144 to 146 °C | CN(C)c1nc(ON=Cc2ccc(Cl)cc2)ncc1F [Compound 52] | 0 to 25 | 0 to 25 | 0 to 25 | 26 to 50
3 | 110 to 112 °C | COc1ccc(CN(C)c2nc(ON=CC(C)C)ncc2F)cc1 [Compound 50] | 0 to 25 | 0 to 25 | 26 to 50 | 26 to 50
4 | 102 to 105 °C | CC=NOc1ncc(F)c(N)n1 [Compound 10] | 76 to 100 | 76 to 100 | 76 to 100 | 76 to 100
5 | 111 to 114 °C | Fc1cnc(ON=Cc2ccc(Cl)cc2)nc1NCc1ccccc1 [Compound 22] | 0 to 25 | 76 to 100 | 0 to 25 | 0 to 25
6 | 79 to 82 °C | CC=NOc1ncc(F)c(NCc2ccc(OC)cc2)n1 [Compound 34] | 0 to 25 | 26 to 50 | 26 to 50 | 76 to 100
7 | 75 to 76 °C | CN(C)c1nc(ON=Cc2ccccc2)ncc1F [Compound 51] | 0 to 25 | 0 to 25 | 0 to 25 | 51 to 75
8 | 46 to 50 °C | COc1ccc(C=NOc2ncc(F)c(N(C)Cc3ccc(OC)cc3)n2)cc1 [Compound 48] | 0 to 25 | 0 to 25 | 26 to 50 | 51 to 75
9 | 240 to 244 °C (dec.) | CN(C)/C=N/c1nc(ON=Cc2ccccc2)ncc1F [Compound 1, N′-{5-fluoro-2-[1-phenylmethylideneamino-oxy]pyrimidin-4-yl}-N,N-dimethylformamidine] | 76 to 100 | 76 to 100 | 76 to 100 | 76 to 100
10 | 250 to 270 °C (dec.) | COc1ccc(C=NOc2ncc(F)c(N)n2)cc1 [Compound 12] | 76 to 100 | 76 to 100 | 76 to 100 | 76 to 100
11 | 186 to 210 °C (dec.) | CN(C)/C=N/c1nc(ON=Cc2ccccc2Cl)ncc1F [Compound 3] | 76 to 100 | 76 to 100 | 76 to 100 | 76 to 100

More lines, now with the values behind:

Row | Structure (SMILES) | melting point | pest or weed control at 25 ppm [1, 2] [%] | pest or weed control at 100 ppm [1, 3] [%] | pest or weed control at 25 ppm [1, 4] [%] | pest or weed control at 100 ppm [1, 5] [%]
12 | Fc1cnc(ON=Cc2ccccc2)nc1NCc1ccccc1 [Compound 21] | 111 to 113 °C | 0 to 25 | 76 to 100 | 51 to 75 | 76 to 100
13 | CN(Cc1ccc(Cl)cc1)c1nc(ON=Cc2ccc(Cl)cc2)ncc1F [Compound 42] | 115 to 116 °C | 0 to 25 | 26 to 50 | 0 to 25 | 0 to 25
14 | CN(C)/C=N/c1nc(ON=Cc2ccc(Cl)cc2)ncc1F [Compound 2] | 230 to 242 °C (dec.) | 76 to 100 | 76 to 100 | 76 to 100 | 76 to 100
15 | Nc1nc(ON=Cc2ccc(Cl)cc2)ncc1F [Compound 8] | 200 to 220 °C (dec.) | 76 to 100 | 76 to 100 | 76 to 100 | 76 to 100
16 | COc1ccc(C=NOc2ncc(F)c(N(C)Cc3ccccc3)n2)cc1 [Compound 38] | 100 to 103 °C | 0 to 25 | 0 to 25 | 26 to 50 | 51 to 75
17 | Fc1cnc(ON=Cc2ccccc2)nc1NCc1ccc(Cl)cc1 [Compound 26] | 127 to 128 °C | 0 to 25 | 0 to 25 | 26 to 50 | 26 to 50
18 | Fc1ccccc1CNc1nc(ON=Cc2ccc(Cl)cc2)ncc1F [Compound 18] | 98 to 103 °C | 76 to 100 | 76 to 100 | 0 to 25 | 0 to 25
19 | COc1ccccc1C=NOc1ncc(F)c(N)n1 [Compound 9] | 240 to 250 °C (dec.) | 76 to 100 | 76 to 100 | 76 to 100 | 76 to 100
20 | CC(C)C=NOc1ncc(F)c(N(C)Cc2ccccc2)n1 [Compound 40] | 176 to 179 °C | 0 to 25 | 0 to 25 | 0 to 25 | 51 to 75
21 | COc1ccc(C=NOc2ncc(F)c(NCc3ccccc3)n2)cc1 [Compound 23] | 180 to 194 °C | 0 to 25 | 76 to 100 | 26 to 50 | 26 to 50
22 | Fc1cnc(ON=Cc2ccc(Cl)cc2)nc1NCc1ccc(Cl)cc1 [Compound 27] | 119 to 121 °C | 0 to 25 | 26 to 50 | 26 to 50 | 51 to 75
23 | COc1ccc(C=NOc2ncc(F)c(/N=C/N(C)C)n2)cc1 [Compound 13, N′-{5-Fluoro-2-[1-(4-methoxyphenyl)-methylideneaminooxy]pyrimidin-4-yl}-N,N-dimethylformamidine] | 243 to 245 °C (dec.) | 76 to 100 | 76 to 100 | 76 to 100 | 76 to 100
